In publication PMC5430895 (Scientific Reports, 2017):

Biological target: T1, hOCT1 (Homo sapiens, UniProt O15245)
T1 sequence (O15245 1-554): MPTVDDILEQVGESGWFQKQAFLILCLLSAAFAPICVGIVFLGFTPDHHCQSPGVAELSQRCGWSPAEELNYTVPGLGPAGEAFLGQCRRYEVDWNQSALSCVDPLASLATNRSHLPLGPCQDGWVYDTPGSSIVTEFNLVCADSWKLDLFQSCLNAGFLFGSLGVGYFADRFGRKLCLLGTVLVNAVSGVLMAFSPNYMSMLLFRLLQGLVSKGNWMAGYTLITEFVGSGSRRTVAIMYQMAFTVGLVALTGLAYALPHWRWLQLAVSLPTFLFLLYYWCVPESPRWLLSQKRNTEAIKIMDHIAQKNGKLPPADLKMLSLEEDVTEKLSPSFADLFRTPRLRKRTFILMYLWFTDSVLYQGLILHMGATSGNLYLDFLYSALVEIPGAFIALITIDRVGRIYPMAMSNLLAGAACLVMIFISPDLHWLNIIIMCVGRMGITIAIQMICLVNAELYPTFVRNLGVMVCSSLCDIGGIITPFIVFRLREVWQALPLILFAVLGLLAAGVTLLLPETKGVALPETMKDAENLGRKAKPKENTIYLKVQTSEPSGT
Test: Inhibition of ASP+ uptake in hOCT1-HEK293 cells (apparent affinity)
Assay type: cell-based
Design: expressed in transfected cells; host or cells: HEK293
Conditions: hOCT1-HEK293, ASP+ 1 µM

IC50: 57 µM
SMILES: CN1CCN(CCOc2cc(OC3CCOCC3)c3c(Nc4c(Cl)ccc5c4OCO5)ncnc3c2)CC1 [saracatinib, N-(5-chloro-1,3-benzodioxol-4-yl)-7-[2-(4-methylpiperazin-1-yl)ethoxy]-5-(tetrahydro-2H-pyran-4-yloxy)quinazolin-4-amine]
